Data from article doi:10.1101/2021.10.07.463234v2 (biorxiv, 2021).
Structures can show the parent of a compound that is named as a salt. Square brackets hold non-standard residues; d marks the D form. Peptide text beside a SMILES is read from it. pGlu = O=C1CC[C@@H](C(=O)O)N1; Thz = O=C(O)[C@@H]1CSCN1

Molecular target: SARS-CoV-2 Mac1 (Severe acute respiratory syndrome coronavirus 2, UniProt P0DTD1)
Assay: biochemical
Details: for inhibition at 100 µM: read-out: %inhibition; for %inhibition: 100 µM, inhibitor

Structure (SMILES)	inhibition at 100 µM	%inhibition
Cc1cc(C(C)(C)C)cc(C)c1CC1=NCCN1 [Xylometazoline HCl]	9.99%	
O=C(Nc1c(Cl)cncc1Cl)c1ccc(OC(F)F)c(OCC2CC2)c1 [Roflumilast]	5.88%	
CC1(C)[C@@H](O[C@H]2O[C@H](C(=O)O)[C@@H](O)[C@H](O)[C@H]2O[C@@H]2O[C@H](C(=O)O)[C@@H](O)[C@H](O)[C@H]2O)CC[C@]2(C)[C@H]3C(=O)C=C4[C@@H]5C[C@@](C)(C(=O)O)CC[C@]5(C)CC[C@@]4(C)[C@]3(C)CC[C@@H]12 [Ammonium Glycyrrhizinate]	0%	
CCCCCCCCOc1ccccc1C(=O)Nc1ccc(C(=O)OCC[N+](C)(CC)CC)cc1 [Otilonium Bromide]	11%	
S=P(N1CC1)(N1CC1)N1CC1 [Thiotepa]	21.5%	
O=C(O)/C=C/c1ccc(Cn2ccnc2)cc1 [Ozagrel]		4.368%
CC(C)OC(=O)[C@H](C)N[P@](=O)(OC[C@H]1O[C@@H](n2ccc(=O)[nH]c2=O)[C@](C)(F)[C@@H]1O)Oc1ccccc1 [Sofosbuvir (PSI-7977, GS-7977)]	42.9%	
O=C(O)CCC(=O)Nc1ccc(S(=O)(=O)Nc2nccs2)cc1 [Succinylsulfathiazole]	0%	
CC(C)(O)CNc1nc(Nc2ccnc(C(F)(F)F)c2)nc(-c2cccc(C(F)(F)F)n2)n1 [Enasidenib (AG-221)]	6.78%	
CC(=O)OCC(CCn1cnc2cnc(N)nc21)COC(C)=O [Famciclovir]	0%	
O=C1c2c(O)ccc(O)c2C(=O)c2c(NCCNCCO)ccc(NCCNCCO)c21 [Mitoxantrone 2HCl]	74.8%	
CO[C@@]1(NC(=O)C(C(=O)O)c2ccc(O)cc2)C(=O)N2C(C(=O)O)=C(CSc3nnnn3C)CO[C@@H]21 (stereo partly shown) [Latamoxef sodium]	17%	
Cc1cc(C)cc(OCC2CNC(=O)O2)c1 (stereo not shown) [Metaxalone]	0%	
Cc1cccc(Nc2ccccc2C(=O)O)c1C [Mefenamic Acid]	21%	
COc1cc(O)c(C(=O)Nc2nc(C(=O)NCCN(C(C)C)C(C)C)cs2)cc1OC [Acotiamide]		14.33%
CC(=O)Oc1ccccc1C(=O)O [Aspirin]		26.28%
Nc1nc(/C(=C/CC(=O)O)C(=O)N[C@@H]2C(=O)N3C(C(=O)O)=CCS[C@H]23)cs1 [Ceftibuten dihydrate]	10.7%	
COc1ccc2c3c1O[C@H]1C[C@@H](O)C=C[C@@]31CCN(C)C2 [Galanthamine HBr]	0%	
NCCc1cc(O)c(O)cc1O [Oxidopamine (hydrobromide)]	0%	
CC(C)C[C@H](NC(=O)CNC(=O)[C@H](Cc1ccc(O)cc1)NC(=O)[C@H](CO)NC(=O)[C@H](Cc1c[nH]c2ccccc12)NC(=O)[C@H](Cc1cnc[nH]1)NC(=O)[C@@H]1CCC(=O)N1)C(=O)N[C@@H](CCCNC(=N)N)C(=O)N1CCC[C@H]1C(=O)NCC(N)=O [Gonadorelin Acetate]	0%	
NC[C@H]1O[C@H](O[C@H]2[C@H](O)[C@@H](O[C@H]3O[C@H](CO)[C@@H](O)[C@H](N)[C@H]3O)[C@H](N)C[C@@H]2N)[C@H](N)C[C@@H]1O [Tobramycin sulfate]		7.872%
CC[C@H](C)[C@H](N)C(=O)O [isoleucine]	0%	
Cc1nnc(C(C)C)n1[C@@H]1C[C@H]2CC[C@@H](C1)N2CC[C@H](NC(=O)C1CCC(F)(F)CC1)c1ccccc1 [Maraviroc]	24.2%	
COc1ccc(Cl)c(Nc2nc3ccccc3nc2NS(=O)(=O)c2cccc(NC(=O)C(C)(C)N)c2)c1 [Pilaralisib (XL147)]	31.9%	
CC1(C)S[C@@H]2[C@H](NC(=O)COc3ccccc3)C(=O)N2[C@H]1C(=O)O [Penicillin V potassium salt]	0%	

Structure (SMILES)	inhibition at 100 µM	%inhibition
CC(COc1ccccc1)N(CCCl)Cc1ccccc1 (stereo not shown) [Phenoxybenzamine HCl]	0%	
Cc1cccc(CN2CCN(C(c3ccccc3)c3ccc(Cl)cc3)CC2)c1 (stereo not shown) [Meclizine 2HCl]	9.09%	
O=C1CC[C@@H](C(=O)N2CSC[C@H]2C(=O)O)N1 [Pidotimod] ([pGlu]-[Thz]-OH)	4.19%	
CCOC(=O)c1ccc(N)cc1 [Benzocaine hydrochloride]	0%	
c1ccc([C@H]2CN3CCSC3=N2)cc1 [Levamisole hydrochloride]	0%	
O=C(O)c1cccnc1 [Nicotinic Acid]	28.8%	
CCOC(=O)[C@H](CCc1ccccc1)N[C@@H](C)C(=O)N1[C@H](C(=O)O)C[C@@H]2CCC[C@@H]21 [Ramipril]	0%	
CC[C@]1(O)C[C@@H]2CN(CCc3c([nH]c4ccccc34)[C@@](C(=O)OC)(c3cc4c(cc3OC)N(C)[C@H]3[C@@](O)(C(=O)OC)[C@H](OC(C)=O)[C@]5(CC)C=CCN6CC[C@]43[C@@H]65)C2)C1 [Vinblastine sulfate]	1.94%	
Cc1c(N)nc([C@H](CC(N)=O)NC[C@H](N)C(N)=O)nc1C(=O)N[C@H](C(=O)N[C@H](C)[C@@H](O)[C@H](C)C(=O)N[C@H](C(=O)NCCc1nc(-c2nc(C(=O)NCCC[S+](C)C)cs2)cs1)[C@@H](C)O)[C@@H](O[C@@H]1O[C@@H](CO)[C@@H](O)[C@H](O)[C@@H]1O[C@H]1O[C@H](CO)[C@@H](O)[C@H](OC(N)=O)[C@@H]1O)c1cnc[nH]1 [Bleomycin sulfate]	0%	
O=c1[nH]c(=O)n([C@H]2C[C@H](O)[C@@H](CO)O2)cc1I [Idoxuridine]	44.1%	
CCc1cc2c(cc1CC)CC(NC[C@H](O)c1ccc(O)c3[nH]c(=O)ccc13)C2 [Indacaterol Maleate]		2.994%
N=C(N)NCCN1CCCCCCC1 [Guanethidine Monosulfate]		5.593%
O=C(O)c1nn(Cc2ccc(Cl)cc2Cl)c2ccccc12 [Lonidamine]	7.38%	
CC(=O)O[C@H]1C(=O)[C@@]2(C)[C@H]([C@H](OC(=O)c3ccccc3)[C@]3(O)C[C@H](OC(=O)[C@H](O)[C@@H](NC(=O)c4ccccc4)c4ccccc4)C(C)=C1C3(C)C)[C@]1(OC(C)=O)CO[C@@H]1C[C@@H]2O [Paclitaxel]	6.04%	
Nc1ccn([C@H]2CC[C@@H](CO)O2)c(=O)n1 [Zalcitabine]	19.2%	
OCCOc1ccc(/C(=C(/CCCl)c2ccccc2)c2ccccc2)cc1 [Ospemifene]	16.8%	
Cn1cc(C(=O)[C@@H]2CCc3[nH]cnc3C2)c2ccccc21 [Ramosetron Hydrochloride]	0%	
NC(=NCCCCCCN=C(N)/N=C(\N)Nc1ccc(Cl)cc1)/N=C(\N)Nc1ccc(Cl)cc1 [Chlorhexidine?2HCl]		7.76%
C=C1c2cccc(O)c2C(=O)C2=C(O)[C@]3(O)C(=O)C(C(N)=O)=C(O)[C@@H](N(C)C)[C@@H]3[C@@H](O)[C@H]12 [Methacycline HCl]	0%	
CCOCCn1c(N2CCCN(C)CC2)nc2ccccc21 [Emedastine]		0%
O=C(O)c1ccccc1O [Salicylic acid]		1.324%
Oc1ccc(/C=C/c2cc(O)cc(O)c2)cc1 [Resveratrol]	0%	
O=c1oc2c(O)c(O)cc3c(=O)oc4c(O)c(O)cc1c4c23 [Ellagic acid]	33.1%	
CNCc1ccc(-c2[nH]c3cc(F)cc4c3c2CCNC4=O)cc1 [Rucaparib (AG-014699,PF-01367338) phosphate]	10.4%	
